Experimental findings from ChEMBL document CHEMBL6071135, “New resorcylic acid derivatives of Lysimachia tengyuehensis against MRSA and VRE by interfering with bacterial metabolic imbalance” (Eur J Med Chem, 2024) are described below.

≈ marks a conversion by molar mass, not a printed value. Calls of active or inactive are those of the source.

The test system of data set [1] is Enterococcus faecalis. The data set can be described thus: Bactericidal activity against vancomycin-resistant Enterococcus faecalis ATCC51299 measured after 24 hrs by CLSI based broth microdilution method. The format is functional. (In broth dilution the organism is exposed to a series of concentrations in liquid medium.)
The test system of data set [2] is Enterococcus faecalis. The data set can be described thus: Antibacterial activity against vancomycin-resistant Enterococcus faecalis ATCC51299 measured after 24 hrs by CLSI based broth microdilution method. It counts as functional.
The subject of data set [3] is Staphylococcus aureus. The data set can be described thus: Antibacterial activity against methicillin-resistant Staphylococcus aureus measured after 24 hrs by CLSI based broth microdilution method. The format is functional.
Data set [4] has as its system Staphylococcus aureus. The data set can be described thus: Bactericidal activity against methicillin-resistant Staphylococcus aureus measured after 24 hrs by CLSI based broth microdilution method. It counts as functional.
The test system of data set [5] is Enterococcus faecalis. Nature of the data set: Bactericidal activity against vancomycin-resistant Enterococcus faecalis ATCC51299 assessed as reduction in number of bacteria at 2 times MIC measured within 1 hr by time-kill assay. It counts as functional, organism-based.
The subject of data set [6] is Enterococcus faecalis. Nature of the data set: Drug resistance, ratio of MIC for vancomycin-resistant Enterococcus faecalis ATCC51299 after 20 days exposure to MIC for vancomycin-resistant Enterococcus faecalis ATCC51299 during first exposure. The format is functional. Particulars: time 20 day.
Data set [7] concerns Staphylococcus aureus. Nature of the data set: Antibacterial activity against methicillin resistant Staphylococcus aureus infected in female Kunming mouse model of skin infection assessed as reduction in inflammatory cell infiltration at 8 mg/kg administered daily pre-infected for 4 hrs followed by compound administration for 7 days. Particulars: time 7.0 day. It counts as functional, organism-based.

The subject of data set [8] is Staphylococcus aureus. The data set can be described thus: Antibacterial activity against methicillin resistant Staphylococcus aureus infected in female Kunming mouse model of skin infection assessed as suppression of purulent secretion at 8 mg/kg administered daily pre-infected for 4 hrs followed by compound administration for 7 days. The format is functional, organism-based. The conditions noted are these: time 7.0 day.

Data set [9] concerns Staphylococcus aureus. The data set can be described thus: Antibacterial activity against methicillin resistant Staphylococcus aureus infected in female Kunming mouse model of skin infection assessed as reduction in wound size at 8 mg/kg administered daily pre-infected for 4 hrs followed by compound administration for 7 days. It counts as functional, organism-based. The conditions noted are these: time 7.0 day.

Data set [10] has as its system Staphylococcus aureus. The data set can be described thus: Bactericidal activity against methicillin-resistant Staphylococcus aureus assessed as reduction in number of bacteria at 2 times MIC measured within 1 hr by time-kill assay. It counts as functional, organism-based.
Data set [11] deals with Staphylococcus aureus. The data set can be described thus: Antibacterial activity against methicillin resistant Staphylococcus aureus infected in female Kunming mouse model of skin infection assessed as reduction in bacterial load of wound at 8 mg/kg administered daily pre-infected for 4 hrs followed by compound administration for 7 days. The conditions noted are these: time 7.0 day. The format is functional, organism-based.

Data set [12] is described as follows: Toxicity in Kunming mouse assessed as morphological abnormalities at 8 mg/kg administered daily and measured after 7 days. The format is organism-based. The conditions noted are these: in vivo, 168 h, time 7 day.
The subject of data set [13] is Staphylococcus aureus. The data set can be described thus: Antibacterial activity against methicillin resistant Staphylococcus aureus infected in female Kunming mouse model of skin infection assessed as increase in neovascularization at 8 mg/kg administered daily pre-infected for 4 hrs followed by compound administration for 7 days. The conditions noted are these: time 7.0 day. The format is functional, organism-based.

For `CCCCCCCCCCCCCCc1cc(O)cc(O)c1C(=O)O`, the values for the MBC in the data set with Enterococcus faecalis [1] and against Staphylococcus aureus [4] were 8 µg/mL (≈ 22.8 µM) and 4 µg/mL (≈ 11.4 µM), respectively. For the same compound, the MIC in the data set on Enterococcus faecalis [2] and against Staphylococcus aureus [3] was 4 µg/mL (≈ 11.4 µM) throughout.
`CCCCCCCCCCCCCc1cc(O)cc(O)c1`: the MBC in the data set on Enterococcus faecalis [1] and with Staphylococcus aureus [4] was 4 µg/mL (≈ 13.7 µM) in each case. For the same compound, the MIC against Enterococcus faecalis [2] and in the data set with Staphylococcus aureus [3] was 4 µg/mL (≈ 13.7 µM) each time.
`CCCCCCCCCCCCCc1cc(O)cc(O)c1C(=O)O`: the values for the MBC against Enterococcus faecalis [1] and in the data set on Staphylococcus aureus [4] were 8 µg/mL (≈ 23.8 µM) and 4 µg/mL (≈ 11.9 µM), respectively. The MIC with Enterococcus faecalis [2] was determined as 8 µg/mL (≈ 23.8 µM); with Staphylococcus aureus [3] it was 4 µg/mL (≈ 11.9 µM).
`CCCCCCCCCCCCc1cc(O)cc(O)c1`: the MBC with Enterococcus faecalis [1] was 4 µg/mL (≈ 14.4 µM); in the data set with Staphylococcus aureus [4], 8 µg/mL (≈ 28.7 µM). The MIC in the data set on Enterococcus faecalis [2] amounted to 4 µg/mL (≈ 14.4 µM); in the data set with Staphylococcus aureus [3] it was 8 µg/mL (≈ 28.7 µM).
With `CC1(C)S[C@@H]2[C@H](NC(=O)[C@H](N)c3ccccc3)C(=O)N2[C@H]1C(=O)O` [AMPICILLIN], the lowest concentration to inhibit growth in the data set with Enterococcus faecalis [2] (MIC) was 2 µg/mL (≈ 5.72 µM). In the data set with Enterococcus faecalis [5], the outcome was inactive. Moreover, the “fold change (FC)” value with Enterococcus faecalis [6] is listed as 4.
Consider `CN[C@H](CC(C)C)C(=O)N[C@H]1C(=O)N[C@@H](CC(N)=O)C(=O)N[C@H]2C(=O)N[C@H]3C(=O)N[C@H](C(=O)N[C@H](C(=O)O)c4cc(O)cc(O)c4-c4cc3ccc4O)[C@H](O)c3ccc(c(Cl)c3)Oc3cc2cc(c3O[C@@H]2O[C@H](CO)[C@@H](O)[C@H](O)[C@H]2O[C@H]2C[C@](C)(N)[C@H](O)[C@H](C)O2)Oc2ccc(cc2Cl)[C@H]1O` [VANCOMYCIN], for which the result in the data set on Staphylococcus aureus [7], in the data set on Staphylococcus aureus [8], in the data set on Staphylococcus aureus [9], with Staphylococcus aureus [11] and in the data set with Staphylococcus aureus [13] was Active. In addition, in the data set with Staphylococcus aureus [10], the outcome was inactive. Besides, in [12], the Activity entry is “Non-Toxic”.
For the compound `COc1cccc(OC)c1C(=O)N[C@@H]1C(=O)N2[C@@H]1SC(C)(C)[C@@H]2C(=O)O` [METHICILLIN], in the data set with Staphylococcus aureus [3], the MIC is over 128 µg/mL.
In the case of `CCCCCCCCCCCc1cc(O)cc(O)c1C(=O)O`, the MBC against Enterococcus faecalis [1] and against Staphylococcus aureus [4] was 8 µg/mL (≈ 25.9 µM) each time. The MIC in the data set on Enterococcus faecalis [2] and against Staphylococcus aureus [3] was 8 µg/mL (≈ 25.9 µM) throughout.
Regarding `CCCCCCCCCCCCc1cc(O)cc(O)c1C(=O)O`, the MBC was 4 µg/mL (≈ 12.4 µM) in the data set with Enterococcus faecalis [1] and 8 µg/mL (≈ 24.8 µM) in the data set on Staphylococcus aureus [4]. The MIC was found to be 4 µg/mL (≈ 12.4 µM) in the data set with Enterococcus faecalis [2] and 8 µg/mL (≈ 24.8 µM) against Staphylococcus aureus [3].

The term MBC denotes the lowest tested concentration that kills the bacteria rather than only halting them. High values mean less potent killing, low ones more potent killing. The MIC is the smallest concentration in the dilution series that meets the test's criterion for growth inhibition. Read a low MIC as inhibition by little substance.
